10 molecules from PubChem BioAssay (NCI) can be followed below.

Among the test systems are SR leukemia; NCI-H226 lung; COLO 205 colon; HCT-116 colon; A549 NSCLC; UO-31 renal; 786-0 renal; SF-539 CNS; SF-268 CNS; RXF 393 renal.
Assay in all cases: NCI-60 cell line screen, 48 h

Structures are written as SMILES. Where “and” joins values, the source holds several entries; their conditions need not be identical. Equal values may be shown once.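 Interpolation was linear, between the two tested concentrations surrounding the appropriate level; five concentrations were tested over 48 hours in 96-well plates. GI50 = concentration required for 50% inhibition of growth. TGI: total growth inhibition.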 Where only a bound is given, the exact number is not on record here.

Turning to `COc1ccc(/C=C/C(=O)c2ccc3cc(OC)c(OC)cc3c2)cc1OC`, the GI50 with SR leukemia was 1.69 µM; in the test on NCI-H226 lung, 2.97 µM; with COLO 205 colon it was 4.1 µM; with HCT-116 colon, 2.64 µM; with A549 NSCLC, 2.59 µM; in the test on UO-31 renal, 2.85 µM. The GI50 in the test on 786-0 renal was 4.19 µM; in the test with SF-539 CNS, 2.94 µM; in the test with SF-268 CNS, 4.45 µM; in the test on RXF 393 renal, 2.82 µM. Moreover, the TGI was > 100 µM in the test with SR leukemia; 13.5 µM with NCI-H226 lung; 13.2 µM in the test with COLO 205 colon; > 100 µM in the test with HCT-116 colon; 10.6 µM with A549 NSCLC; 12.7 µM in the test on UO-31 renal. Also, the TGI with 786-0 renal is 27.9 µM; in the test on SF-539 CNS, 10.4 µM; with SF-268 CNS, 22.6 µM; in the test on RXF 393 renal, 8.15 µM.
Regarding `COc1cc([C@@H]2c3cc4c(cc3[C@@H](NCc3ccccc3)C3COC(=O)[C@@H]32)OCO4)cc(OC)c1O` (some centres undefined), the TGI in the test with SR leukemia is 4.84 µM; in the test on NCI-H226 lung it was 11.2 µM; in the test with COLO 205 colon it was > 89 µM; with HCT-116 colon, > 100 µM; in the test on A549 NSCLC, 15.4 µM; in the test on UO-31 renal it was 17.6 µM. In addition, the TGI with 786-0 renal amounted to 12.5 µM; in the test on SF-539 CNS it was 26.7 µM; in the test with SF-268 CNS, 61.5 µM; in the test on RXF 393 renal, 72.2 µM.
As for `Nc1ncnc2c(C3OC(CO)C(O)C3O)[nH]nc12` (centres undefined), the GI50 in the test on SR leukemia is 0.0347 µM; in the test with NCI-H226 lung, 0.529 µM and 0.793 µM; in the test on COLO 205 colon it was 2.99 µM; in the test with UO-31 renal, 0.0619 µM; in the test on 786-0 renal it was 0.0544 µM; in the test with SF-539 CNS, 0.271 µM. Besides, the GI50 in the test on SF-268 CNS was 0.204 µM and 0.452 µM. Moreover, the TGI was 5.83 µM and 10.7 µM in the test with NCI-H226 lung; 15.7 µM and 11.7 µM in the test with COLO 205 colon; 3.16 µM in the test with HCT-116 colon; 9.43 µM in the test on A549 NSCLC; 5.65 µM with 786-0 renal; 2.32 µM and 5.87 µM in the test with SF-539 CNS. Further, the TGI in the test with SF-268 CNS was 14 µM and 35.9 µM; with RXF 393 renal, 2.92 µM and 1.88 µM.
Take `Cc1ccccc1-c1c(N)nc(N)nc1C(=O)Nc1nccs1`: the TGI in the test on SR leukemia, with NCI-H226 lung, in the test on COLO 205 colon, with HCT-116 colon, in the test on A549 NSCLC and with UO-31 renal was > 100 µM throughout. In addition, the TGI in the test with 786-0 renal, with SF-539 CNS, with SF-268 CNS and in the test on RXF 393 renal was > 100 µM throughout.
As to `Cc1ccc(S(=O)(=O)SCc2ccccc2CSS(=O)(=O)c2ccc(C)cc2)cc1`, the TGI with SR leukemia was 43.5 µM; in the test with NCI-H226 lung, > 100 µM; in the test with COLO 205 colon, 31.1 µM; in the test on HCT-116 colon it was 59.6 µM; in the test on A549 NSCLC, > 100 µM; with UO-31 renal it was > 100 µM. Further, the TGI in the test with 786-0 renal was 34.4 µM; in the test on SF-539 CNS, 36.2 µM; in the test on SF-268 CNS it was > 100 µM; with RXF 393 renal, 29.6 µM.
As for `O=c1oc2ccc(Cl)cc2c(=O)n1-c1cc(C(F)(F)F)cc(C(F)(F)F)c1`, the GI50 in the test with SR leukemia was 0.308 µM; with NCI-H226 lung, 0.305 µM; in the test on COLO 205 colon, 1.78 µM; with HCT-116 colon, 0.277 µM; with A549 NSCLC, 0.339 µM; in the test on UO-31 renal, 0.238 µM. Moreover, the GI50 was 0.316 µM with 786-0 renal, 0.317 µM in the test with SF-539 CNS, 0.262 µM in the test with SF-268 CNS and 0.228 µM in the test with RXF 393 renal. Moreover, the TGI is > 51 µM in the test with SR leukemia; 2.21 µM in the test with NCI-H226 lung; 3.72 µM in the test on COLO 205 colon; 1.21 µM with HCT-116 colon; 13.1 µM in the test with A549 NSCLC; 0.831 µM in the test on UO-31 renal. Further, the TGI came out at 1.14 µM with 786-0 renal, 1.74 µM in the test with SF-539 CNS, 5.5 µM in the test with SF-268 CNS and 0.746 µM in the test with RXF 393 renal.
In the case of `Cc1ccccc1NC(=O)C1C(=O)N(c2ccccc2C)C(=O)/C1=N\N` (centres undefined), the TGI in the test with SR leukemia, in the test with NCI-H226 lung, with COLO 205 colon, in the test with HCT-116 colon, with A549 NSCLC and with UO-31 renal was > 100 µM throughout. For the same molecule, the TGI with 786-0 renal, in the test with SF-539 CNS, in the test on SF-268 CNS and in the test with RXF 393 renal was > 100 µM throughout.
Regarding `CC(=O)OC1C/C(C)=C/CCC(C)/C=C/C2(C)CCC(C(C)(C)O)C12` (centres undefined), the TGI in the test with SR leukemia was 47.2 µM; in the test on NCI-H226 lung, > 100 µM; with COLO 205 colon it was > 100 µM; with HCT-116 colon it was 77.1 µM; with A549 NSCLC it was > 100 µM; with UO-31 renal it was > 100 µM. The TGI was > 100 µM with 786-0 renal, > 100 µM with SF-539 CNS, > 100 µM with SF-268 CNS and 53.3 µM in the test with RXF 393 renal.
With `CC[N+]1(C)CCC(O)(c2ccccc2)C(C(=O)c2ccccc2)C1` (centres undefined), the TGI with SR leukemia amounted to 15.6 µM; in the test with NCI-H226 lung, 38.8 µM; in the test with COLO 205 colon, 36.7 µM; in the test on HCT-116 colon it was 34.7 µM; with A549 NSCLC it was 27.9 µM; in the test on UO-31 renal, 33.6 µM. In addition, the TGI in the test with 786-0 renal turned out to be 18.8 µM; with SF-539 CNS, 31.3 µM; in the test with SF-268 CNS, 59.8 µM; in the test on RXF 393 renal it was 26.6 µM.
As to `CCOC(=O)c1ccc(Nc2sc(C(=O)c3cccc([N+](=O)[O-])c3)c(N)c2C#N)cc1`, the GI50 with SR leukemia is 0.034 µM; in the test on NCI-H226 lung it was 4.67 µM; with COLO 205 colon, 0.156 µM; in the test with HCT-116 colon, 0.0505 µM; in the test on A549 NSCLC it was 0.23 µM; in the test with UO-31 renal it was 0.0543 µM. Moreover, the GI50 was 0.122 µM with 786-0 renal, 0.0885 µM in the test on SF-539 CNS, 0.198 µM in the test with SF-268 CNS and 0.167 µM in the test with RXF 393 renal. Further, the TGI with SR leukemia came to 4.71 µM; with NCI-H226 lung, 99.5 µM; in the test on COLO 205 colon it was 1.59 µM; in the test on HCT-116 colon, 4.17 µM; in the test on UO-31 renal, 20 µM; in the test with 786-0 renal it was 15.3 µM. In addition, the figures for the TGI in the test on SF-539 CNS, with SF-268 CNS and in the test on RXF 393 renal were 13.2 µM, 21 µM and 24.8 µM, respectively.
